From patent US20180353483A1, “PHARMACEUTICAL COMPOSITIONS AND METHODS FOR INDOLEAMINE, 2, 3-DIOXYGENASE INHIBITION AND INDICATIONS THEREFOR” (Incyte Corporation, priority 2015, published 2018)
Values joined by “and” are separate entries in the source; they are usually repeats but may differ in a detail not shown here. Equal values may be shown once. Read-outs that look alike come from different tables or passages of the source.

Assay: Pharmacokinetics of Compound 1 in combination with MK-3475 in subjects with various cancers
Assay type: in vivo, human
Method: The subjects were not limited to a specific cancers and study include subjects with various cancers. […] One treatment cycle consisted of 21 days. […] Additional subjects were enrolled in a cohort to achieve the minimum of 3 evaluable subjects if dropouts or dose interruptions or reductions occur that result in a subject being non-evaluable for DLTs. […] An additional safety cohort was opened at 100 mg BID in parallel to 300 mg BID being tested. This may also be limited to subjects with melanoma, NSCLC, or specific cancer types from among those included in Phase 1. The RP2D was selected from the evaluated safety expansions.
If a dose was missed by more than 4 hours, that dose was skipped and was resumed at the scheduled time.
Pharmacokinetic samples were obtained at the visits of Cycle 1 Day 1, Cycle 1 Day 8 and Cycle 2 Day 1. […] The exact date and time of the PK blood draws were recorded in the eCRF along with the date and time of the last dose of study drug and details of the last meal preceding the blood draw.
The planned PK time points were used for preliminary PK analyses.

[1] = Cohort 1, 25 mg, first dose, geometric mean
[2] = Cohort 1, 25 mg, first dose, mean ± SD
[3] = Cohort 6, 300 mg BID, steady state C1D8, mean ± SD
[4] = Diagnosis DLBCL, steady state C1D8, individual values of 2 subjects
[5] = Diagnosis RCC, first dose, individual values of 2 subjects
[6] = by dose, 25 mg, first dose, geometric mean
[7] = by dose, 25 mg, first dose, mean ± SD
[8] = by dose, 50 mg BID, steady state C1D8, mean ± SD
[9] = by dose, 100 mg BID, steady state C1D8, mean ± SD
[10] = by dose, 100 mg, first dose, geometric mean

NS(=O)(=O)NCCNc1nonc1C(=NO)Nc1ccc(F)c(Br)c1 [Compound 1, 4-({2-[(aminosulfonyl)amino]ethyl}amino)-N-(3-bromo-4-fluorophenyl)-N′-hydroxy-1,2,5-oxadiazole-3-carboximidamide]
tmax (All diagnoses, first dose, median): 2.00 h
CL/F (All diagnoses, steady state C1D8, mean ± SD): 28.7 ± 10.3 L/h
tmax (All diagnoses, steady state C1D8, median): 2.00 h
CL/F (Cohort 1, 25 mg BID, steady state C1D8, mean ± SD): 46.2 ± 8.91 L/h
tmax (Cohort 1, 25 mg BID, steady state C1D8, median): 1.00 h
AUC(0-t) [1]: (0.650) μM * h
Cmax [1]: 199 nM
AUC(0-t) [2]: 0.711 ± 0.349 µM·h
Cmax [2]: 231 ± 151 nM
tmax (Cohort 1, 25 mg, first dose, median): 2.00 h
CL/F (Cohort 2, 50 mg BID, steady state C1D8, mean ± SD): 52.6 ± 22.4 L/h
tmax (Cohort 2, 50 mg BID, steady state C1D8, median): 2.00 h
Cmax (Cohort 2, 50 mg, first dose, geometric mean): 543 nM
tmax (Cohort 2, 50 mg, first dose, median): 2.00 h
Cmax (Cohort 3, 100 mg BID, steady state C1D8, geometric mean): 814 nM
CL/F (Cohort 3, 100 mg BID, steady state C1D8, mean ± SD): 67.4 ± 34.9 L/h
tmax (Cohort 3, 100 mg BID, steady state C1D8, median): 2.00 h
CL/F (Cohort 4 (MEL), 50 mg BID, steady state C1D8, mean ± SD): 78.3 ± 28.9 L/h
tmax (Cohort 4 (MEL), 50 mg, first dose, median): 1.00 h
Cmax (Cohort 5, 100 mg BID, steady state C1D8, geometric mean): 803 nM
CL/F (Cohort 5, 100 mg BID, steady state C1D8, mean ± SD): 69.6 ± 28.4 L/h
tmax (Cohort 5, 100 mg BID, steady state C1D8, median): 2.00 h
Cmax (Cohort 6, 300 mg BID, steady state C1D8, geometric mean): 2500 nM
CL/F [3]: 64.8 ± 23.2 L/h
Cmax [3]: 2710 ± 1220 nM
tmax (Cohort 6, 300 mg BID, steady state C1D8, median): 2.00 h
tmax (Cohort 6, 300 mg, first dose, median): 2.00 h
Cmax (Cohort 7, 300 mg BID, steady state C1D8, geometric mean): 2520 nM
CL/F (Cohort 7, 300 mg BID, steady state C1D8, mean ± SD): 65 ± 23.4 L/h
tmax (Cohort 7, 300 mg BID, steady state C1D8, median): 2.00 h
tmax (Cohort 7, 300 mg, first dose, median): 2.00 h
AUC(0-t) (Diagnosis DLBCL, first dose, mean ± SD): 2.29 ± 1.16 µM·h
AUC0-12 h [4]: 3.99 µM·h
CL/F [4]: 21.4 L/h and 28.6 L/h
Cmax [4]: 904 nM
tmax [4]: 4.0, 4.0 h
tmax (Diagnosis GU, first dose, median): 2.00 h
CL/F (Diagnosis GU, steady state C1D8, mean ± SD): 28.1 ± 10.0 L/h
tmax (Diagnosis GU, steady state C1D8, median): 2.00 h
Cmax (Diagnosis MEL, first dose, geometric mean): 809 nM
tmax (Diagnosis MEL, first dose, median): 2.00 h
CL/F (Diagnosis MEL, steady state C1D8, mean ± SD): 33.0 ± 10.0 L/h
tmax (Diagnosis MEL, steady state C1D8, median): 2.00 h
Cmax (Diagnosis NSCLC PD-L1 High, steady state C1D8, geometric mean): 815 nM
CL/F (Diagnosis NSCLC PD-L1 High, steady state C1D8, mean ± SD): 29.2 ± 10.4 L/h
Cmax (Diagnosis NSCLC PD-L1 Low/NE, first dose, mean ± SD): 914 ± 343 nM
tmax (Diagnosis NSCLC PD-L1 Low/NE, first dose, median): 1.00 h
CL/F (Diagnosis NSCLC PD-L1 Low/NE, steady state C1D8, mean ± SD): 26.9 ± 4.57 L/h
tmax (Diagnosis NSCLC PD-L1 Low/NE, steady state C1D8, median): 2.00 h
tmax (Diagnosis OC, first dose, median): 2.00 h
CL/F (Diagnosis OC, steady state C1D8, mean ± SD): 27.9 ± 8.82 L/h
tmax (Diagnosis OC, steady state C1D8, median): 2.00 h
AUC(0-t) [5]: 3.58 µM·h and 1.74 µM·h
Cmax [5]: 1350 nM and 418 nM
tmax [5]: 2.0 h
AUC(0-t) (Diagnosis SCCHN, first dose, mean ± SD): 2.32 ± 1.10 µM·h
tmax (Diagnosis SCCHN, first dose, median): 2.00 h
CL/F (Diagnosis SCCHN, steady state C1D8, mean ± SD): 33.3 ± 15.5 L/h
tmax (Diagnosis SCCHN, steady state C1D8, median): 2.00 h
tmax (Diagnosis TNBC, first dose, median): 2.00 h
CL/F (Diagnosis TNBC, steady state C1D8, mean ± SD): 25.7 ± 8.22 L/h
tmax (Diagnosis TNBC, steady state C1D8, median): 2.00 h
CL/F (Dose Reduction By C4D1 subjects (Table 13), steady state C1D8, mean ± SD): 28.4 ± 11.1 L/h
tmax (Dose Reduction By C4D1 subjects (Table 13), steady state C1D8, median): 2.00 h
CL/F (by dose, 25 mg BID, steady state C1D8, mean ± SD): 46.2 ± 8.91 L/h
tmax (by dose, 25 mg BID, steady state C1D8, median): 1.00 h
AUC(0-t) [6]: (0.650) μM * h
Cmax [6]: 199 nM
AUC(0-t) [7]: 0.711 ± 0.349 µM·h
Cmax [7]: 231 ± 151 nM
tmax (by dose, 25 mg, first dose, median): 2.00 h
Cmax (by dose, 50 mg BID, steady state C1D8, geometric mean): 452 nM
CL/F [8]: 68.8 ± 29.0 L/h
Cmax [8]: 502 ± 237 nM
tmax (by dose, 50 mg BID, steady state C1D8, median): 2.00 h
Cmax (by dose, 50 mg, first dose, geometric mean): 500 nM
Cmax (by dose, 50 mg, first dose, mean ± SD): 537 ± 217 nM
tmax (by dose, 50 mg, first dose, median): 2.00 h
Cmax (by dose, 100 mg BID, steady state C1D8, geometric mean): 806 nM
CL/F [9]: 69.1 ± 28.9 L/h
Cmax [9]: 917 ± 424 nM
tmax (by dose, 100 mg BID, steady state C1D8, median): 2.00 h
AUC(0-t) [10]: (2.32) μM * h
Cmax [10]: 719 nM
Cmax (by dose, 100 mg, first dose, mean ± SD): 803 ± 378 nM
tmax (by dose, 100 mg, first dose, median): 2.00 h
Cmax (by dose, 300 mg BID, steady state C1D8, geometric mean): 2510 nM
CL/F (by dose, 300 mg BID, steady state C1D8, mean ± SD): 64.9 ± 22.7 L/h
tmax (by dose, 300 mg BID, steady state C1D8, median): 2.00 h
Cmax (by dose, 300 mg, first dose, geometric mean): 2020 nM
Cmax (by dose, 300 mg, first dose, mean ± SD): 2290 ± 1230 nM
tmax (by dose, 300 mg, first dose, median): 2.00 h
Cmax (human, plasma, oral, 25 mg, Cohort 1, 25 mg BID, steady state C1D8, geometric mean): 276 nM
AUC(0-t) (human, plasma, oral, 25 mg, Cohort 1, 25 mg BID, steady state C1D8, geometric mean, read-out: AUC0-12 h (converted)): 1.25 µM·h
Cmax (human, plasma, oral, 25 mg, Cohort 1, 25 mg BID, steady state C1D8, mean ± SD): 307 ± 150 nM
AUC(0-t) (human, plasma, oral, 25 mg, Cohort 1, 25 mg BID, steady state C1D8, mean ± SD, read-out: AUC0-12 h (converted)): 1.27 ± 0.23 µM·h
Cmax (human, plasma, oral, 25 mg, by dose, 25 mg BID, steady state C1D8, geometric mean): 276 nM
AUC(0-t) (human, plasma, oral, 25 mg, by dose, 25 mg BID, steady state C1D8, geometric mean, read-out: AUC0-12 h (converted)): 1.25 µM·h
Cmax (human, plasma, oral, 25 mg, by dose, 25 mg BID, steady state C1D8, mean ± SD): 307 ± 150 nM
AUC(0-t) (human, plasma, oral, 25 mg, by dose, 25 mg BID, steady state C1D8, mean ± SD, read-out: AUC0-12 h (converted)): 1.27 ± 0.23 µM·h
Cmax (human, plasma, oral, 50 mg, Cohort 2, 50 mg BID, steady state C1D8, geometric mean): 550 nM
AUC(0-t) (human, plasma, oral, 50 mg, Cohort 2, 50 mg BID, steady state C1D8, geometric mean, read-out: AUC0-12 h (converted)): 2.34 µM·h
Cmax (human, plasma, oral, 50 mg, Cohort 2, 50 mg BID, steady state C1D8, mean ± SD): 603 ± 227 nM
AUC(0-t) (human, plasma, oral, 50 mg, Cohort 2, 50 mg BID, steady state C1D8, mean ± SD, read-out: AUC0-12 h (converted)): 2.53 ± 1.02 µM·h
AUC(0-t) (human, plasma, oral, 50 mg, Cohort 2, 50 mg, first dose, geometric mean, read-out: AUC0-t): 1.53 µM·h
Cmax (human, plasma, oral, 50 mg, Cohort 2, 50 mg, first dose, mean ± SD): 574 ± 216 nM
AUC(0-t) (human, plasma, oral, 50 mg, Cohort 2, 50 mg, first dose, mean ± SD, read-out: AUC0-t): 1.6 ± 0.507 µM·h
Cmax (human, plasma, oral, 50 mg, Cohort 4 (MEL), 50 mg BID, steady state C1D8, geometric mean): 403 nM
AUC(0-t) (human, plasma, oral, 50 mg, Cohort 4 (MEL), 50 mg BID, steady state C1D8, geometric mean, read-out: AUC0-12 h (converted)): 1.58 µM·h
Cmax (human, plasma, oral, 50 mg, Cohort 4 (MEL), 50 mg BID, steady state C1D8, mean ± SD): 442 ± 232 nM
AUC(0-t) (human, plasma, oral, 50 mg, Cohort 4 (MEL), 50 mg BID, steady state C1D8, mean ± SD, read-out: AUC0-12 h (converted)): 1.77 ± 1.12 µM·h
tmax (human, plasma, oral, 50 mg, Cohort 4 (MEL), 50 mg BID, steady state C1D8, median, read-out: tmax): 1.5 h
AUC(0-t) (human, plasma, oral, 50 mg, Cohort 4 (MEL), 50 mg, first dose, geometric mean, read-out: AUC0-t): 1.2 µM·h
AUC(0-t) (human, plasma, oral, 50 mg, Cohort 4 (MEL), 50 mg, first dose, mean ± SD, read-out: AUC0-t): 1.32 ± 0.698 µM·h
Cmax (human, plasma, oral, 50 mg, Cohort 4 (MEL), first dose, geometric mean): 474 nM
Cmax (human, plasma, oral, 50 mg, Cohort 4 (MEL), first dose, mean ± SD): 512 ± 224 nM
AUC(0-t) (human, plasma, oral, 50 mg, by dose, 50 mg BID, steady state C1D8, geometric mean, read-out: AUC0-12 h (converted)): 1.83 µM·h
AUC(0-t) (human, plasma, oral, 50 mg, by dose, 50 mg BID, steady state C1D8, mean ± SD, read-out: AUC0-12 h (converted)): 2.05 ± 1.12 µM·h
AUC(0-t) (human, plasma, oral, 50 mg, by dose, 50 mg, first dose, geometric mean, read-out: AUC0-t): 1.33 µM·h
AUC(0-t) (human, plasma, oral, 50 mg, by dose, 50 mg, first dose, mean ± SD, read-out: AUC0-t): 1.43 ± 0.63 µM·h
Cmax (human, plasma, oral, 50 mg, subjects with dose reduction before C4D1, 50 mg BID, C1D8, geometric mean): 519 nM
Cmax (human, plasma, oral, 50 mg, subjects with dose reduction before C4D1, 50 mg BID, C1D8, mean ± SD): 557 ± 260 nM
Cmax (human, plasma, oral, 100 mg BID, All diagnoses, steady state C1D8, geometric mean): 1010 nM
